In patent publication US20240024647A1, “MUCOSA PERFORATION” (LTS LOHMANN THERAPIE-SYSTEME AG, priority 2020, published 2024):
Structures can show the parent of a compound that is named as a salt.

Assays:
[1] = Solubility of the active ingredient in the acceptor medium; assay type: physicochemical
[2] = In vitro permeation by Franz diffusion cells, mucosa with versus without steel microneedle system (AdminPatch)
Procedure: (§1) The following test series with the selected active ingredients in each case were performed within the scope of a typical in vitro permeation by means of Franz diffusion cells (volume 10 mL) at 37° C. The used acceptor medium was replaced completely for a new one at predetermined replacement times, and the content of permeated active ingredient amount in these acceptor solutions was determined by means of HPLC.
The contact pressure was 3 N by thumb pressure, monitored by means of a Roberval balance. The pressing time was 10 sec.
A total of 187 microneedles were applied to an area of 0.785 cm^2 (microneedle density=238 per cm^2).
For Example 4, the donor solution was injected (900 μl) onto or into the used dentistry tamponade (length and diameter 1 cm each). The microneedle system was fixed to the underside of the tamponade and was applied to the mucosa surface perpendicularly through the head of the Franz cells and fixed in a defined position by a suitable stopper and with moderate pressure.
Phosphate buffer (pH 5.5) was used as acceptor medium and an addition of 2 wt. % Tween® 20 was used as organic solvent to maintain “sink” conditions. (sink=current solubility at time t of an active ingredient in an acceptor medium of at most 30% of its saturation solubility in this acceptor medium)
A saturated solution of riociguat in clove oil (Primavera® clove bud organic essential oil, Oy-Mittelberg, Germany) was used as donor solution.
(§2) Dermatomised skin from the oesophagus of a pig with a layer thickness of 400 μm was used as skin model.
0.025 molar HEPES buffer (pH 7.4) was used as acceptor medium.
Phosphate buffer (pH 5.5) was used as acceptor medium and an addition of 2 wt. % Tween® 20 was used as organic solvent to maintain “sink” conditions. […]
The surface of the mucosa was treated with the “AdminPatch™” microneedle system (needle length 600 μm) from the company “nanobioSciences” (CA, USA) made of steel with a contact pressure of 3 N by thumb pressure, monitored by means of a Roberval balance for 10 sec. […]

[3] = In vitro permeation by Franz diffusion cells, dissolving microneedle system loaded with active ingredient, applied into the mucosa versus in reverse
Procedure: as §1, with “HPLC. […]” for “HPLC.”
For preparation, sumatriptan succinate, polyvinylpyrrolidone, Polysorbate 80 and glycerol were dissolved in water with the proportions 5:20:1:1:73 (in each case in wt. %). The finished solution was poured into negative needle moulds made of silicone, the surface of which was coated with a thin platinum layer by vacuum metallisation. The negative moulds were then dried overnight at room temperature. The dried microneedle systems were carefully pressed out from the dies after the drying process and stored under exclusion of moisture until their further use. The active ingredient content was 4.25 mg sumatriptan succinate per 0.785 cm^2 of system or 5.41 mg/cm^2.
The length of the microneedles of the used microneedle system was 500 μm. A total of 600 microneedles were applied to an area of 0.785 cm^2 (microneedle density=764 per cm^2).
as §2
The microneedle system remained in the mucosa throughout the permeation period, the cell head additionally also having been filled with lead balls in order to simulate the in vivo contact pressure (for example between mandible and oral mucosa) in the oral cavity. As protection for the dissolving microneedle system, a separation film based on siliconised PET (polyethylene terephthalate) was also introduced in between in front of the lead balls.

[4] = dissolving microneedle system loaded with sumatriptan base, acceptor phosphate buffer pH 6.0 + 2 wt. % Tween 20, FIG. 9

CN1CCc2cccc3c2[C@H]1Cc1ccc(O)c(O)c1-3 [apomorphine hydrochloride]
solubility in acceptor medium ([1]; phosphate buffer (pH 6.8) with 0.1 wt. % L-ascorbic acid): very easily dissolved

C=C(C)[C@@H]1CCC(C)=C[C@H]1c1c(O)cc(CCCCC)cc1O [cannabidiol]
active ingredient flux after pretreatment with a microneedle system, factor higher in comparison to administration without pretreatment ([2]; saturated cannabidiol solution in clove oil, dentistry tamponade with microneedle system, acceptor phosphate buffer pH 5.5 + 2 wt. % Tween 20, FIG. 4): 2.0

CNS(=O)(=O)Cc1ccc2[nH]cc(CCN(C)C)c2c1 [sumatriptan base]
active ingredient flux in the comparative example (system applied in reverse, not penetrating into the mucosa) [3, 4]: not possible to measure an active ingredient flux
active ingredient flux with the microneedle system applied in the mucosa [3, 4]: high active ingredient flux could be observed
solubility in acceptor medium ([1]; phosphate buffer (pH 6.0) with 2 wt. % Tween 20): very easily dissolved

CNS(=O)(=O)Cc1ccc2[nH]cc(CCN(C)C)c2c1 [sumatriptan succinate]
first permeation value after 10 min, factor higher in comparison to the comparative example ([3]; pig, 10 min, pH 7.4): approximately 4
active ingredient flux with the microneedle system applied in the mucosa, factor higher in comparison to the system without penetration into the mucosa ([3]; pig, pH 7.4): 2.0
solubility in acceptor medium ([1]; phosphate buffer (pH 7.4) without further additives): very easily dissolved

CCCCCc1cc(O)c2c(c1)OC(C)(C)[C@@H]1CCC(C)=C[C@@H]21 [tetrahydrocannabinol]
time after which permeated active ingredient could be detected without pretreatment ([2]; saturated tetrahydrocannabinol solution in clove oil, acceptor phosphate buffer pH 5.5 + 2 wt. % Tween 20, FIG. 3): 3 h
permeated active ingredient without pretreatment, factor lower in comparison to pretreated mucosa ([2]; saturated tetrahydrocannabinol solution in clove oil, value after 3 hours, FIG. 3): 5

CC(=O)O[C@]1(C(C)=O)CC[C@H]2[C@@H]3CCC4=CC(=O)CCC4=C3[C@@H](c3ccc(N(C)C)cc3)C[C@@]21C [ulipristal acetate]
solubility in acceptor medium ([1]; phosphate buffer (pH 7.4) with 2 wt. % Tween 20): very easily dissolved
